Reference: the CheMixHub viscosity set
Values joined by “and” are separate entries in the source; they are usually repeats but may differ in a detail not shown here. Equal entries are not always repeated.

Key:
[1] = xn = mol fraction of the nth substance listed; settings: 101 kPa

BrC(Br)(Br)Br
Settings	viscosity [mPa·s]
298.15 K, 101 kPa	3.987

C=CCn1cc[n+](C)c1.O=S(=O)([N-]S(=O)(=O)C(F)(F)F)C(F)(F)F
Settings	viscosity [mPa·s]
298.15 K, 100 kPa	34.31

CC(=O)N(C)C
Settings	viscosity
293.15 K, 101.33 kPa	1.02 mPa·s
298 K, 101.33 kPa	0.906 mPa·s
298.15 K, 101.3 kPa	0.917 mPa·s
298.15 K, 101.33 kPa	0.92 mPa·s
298.16 K, 101 kPa	0.927 mPa·s
303.15 K, 101.3 kPa	0.8769 mPa·s
308.15 K, 101.33 kPa	0.823 mPa·s
313.15 K, 100 kPa	0.765 mPa·s
323.15 K, 101 kPa	0.673 mPa·s and 0.69 mPa·s
323.15 K, 101.33 kPa	0.72 mPa·s

CC(=O)OCCC1CCCCC1
101 kPa
Settings	viscosity [mPa·s]
300 K	2.54
310 K	2.07
320 K	1.72

CC(O)CN(C)C (stereo not drawn)
101 kPa
Settings	viscosity [mPa·s]
303.15 K	1.221
308.15 K	1.097
313.15 K	0.99
318.15 K	0.902
323.15 K	0.825

CC1CCCCC1=O (stereo not drawn)
viscosity [mPa·s]
Settings	303.15 K	308.15 K	313.15 K
100 kPa	2.225	2.168	2.111
101 kPa	2.225	2.168	–
101.33 kPa	1.406	–	–

CCC1CCCCC1
100 kPa
Settings	viscosity
298.15 K	0.797 mPa·s and 0.792 mPa·s and 0.801 mPa·s
303.15 K	0.747 mPa·s and 0.741 mPa·s
308.15 K	0.705 mPa·s and 0.697 mPa·s and 0.701 mPa·s
313.15 K	0.662 mPa·s and 0.65 mPa·s and 0.664 mPa·s
318.15 K	0.627 mPa·s and 0.617 mPa·s
323.15 K	0.585 mPa·s and 0.57 mPa·s and 0.586 mPa·s

CCCCCCCCCO
viscosity
Settings	298 K	298.15 K	303.15 K	308.15 K	318.15 K	323.15 K
100 kPa	9.587 mPa·s and 7.614 mPa·s	9.566 mPa·s	7.967 mPa·s	6.59 mPa·s and 6.675 mPa·s	4.852 mPa·s and 4.814 mPa·s	4.179 mPa·s and 4.145 mPa·s
101.3 kPa	–	8.965 mPa·s and 9.692 mPa·s	7.375 mPa·s	6.114 mPa·s and 6.494 mPa·s	–	–
101.33 kPa	–	–	7.376 mPa·s	–	–	–

CCCCCCCC[P+](CC)(CC)CC.O=[N+]([O-])c1cn[n-]c1
100 kPa
Settings	viscosity [mPa·s]
293.15 K	398
298.15 K	282
303.15 K	207
308.15 K	155
313.15 K	119
318.15 K	94
323.15 K	75

CCCCCCCC[n+]1ccn(C)c1.F[B-](F)(F)F
101 kPa
Settings	viscosity
298.15 K	336.3 mPa·s and 336.3 mPa·s
303.15 K	257.5 mPa·s
308.15 K	193.8 mPa·s
313.15 K	148.8 mPa·s
323.15 K	92.1 mPa·s

CN(C)CCCO
viscosity [mPa·s]
Settings	293.15 K	303.15 K	308.15 K	313.15 K	318.15 K	323.15 K
100 kPa	7.42	5.228	–	4.007	–	3.082
101 kPa	–	4.933	4.22	3.632	3.155	2.765

Cc1cccc2ccccc12
100 kPa
Settings	viscosity
303.15 K	2.58 mPa·s and 2.62 mPa·s and 2.582 mPa·s
323.15 K	1.75 mPa·s and 1.75 mPa·s and 1.748 mPa·s

NCCNCCO.O=S(=O)([N-]S(=O)(=O)C(F)(F)F)C(F)(F)F.[Li+]
Settings	viscosity [mPa·s]
323.15 K, 101 kPa	735.9

O=[N+]([O-])c1ccccc1O
viscosity [mPa·s]
Settings	313.15 K	323.1 K	323.15 K
101 kPa	2.755	2.68	–
101.33 kPa	–	–	2.31

Cc1c[nH]cn1 + c1ccccc1
viscosity [mPa·s], [1]
Settings	303.15 K	323.15 K
x1 = 0.003559	0.568	–
x1 = 0.007082	0.584	–
x1 = 0.02102	0.631	0.479
x1 = 0.02167	0.636	0.48
x1 = 0.04045	0.729	0.533
x1 = 0.04194	0.748	0.543
x1 = 0.04196	0.749	–
x1 = 0.05112	0.796	0.574
x1 = 0.08708	1.004	–
x1 = 0.1079	1.123	–
x1 = 0.1551	1.496	–
x1 = 0.2018	1.869	–
x1 = 0.2491	2.344	–

CC(N)=O + c1ccncc1
[1], 298.15 K
Settings	viscosity [mPa·s]
x1 = 0.0512	0.987
x1 = 0.0742	1.005
x1 = 0.111	1.088
x1 = 0.2065	1.381

O=C(Nc1ccccc1)Nc1ccccc1 + c1ccncc1
[1], 298.15 K
Settings	viscosity [mPa·s]
x1 = 0.022	1.045
x1 = 0.0281	1.079

O=[N+]([O-])c1ccccc1O + c1ccncc1
viscosity [mPa·s], [1]
Settings	x1 = 0.06767	x1 = 0.1295	x1 = 0.178	x1 = 0.2717	x1 = 0.3836	x1 = 0.4628	x1 = 0.5508	x1 = 0.6529	x1 = 0.7913	x1 = 0.8557
303.15 K	0.943	1.081	1.211	1.5	1.881	2.15	2.45	2.755	3.145	3.331
313.15 K	0.815	0.93	1.03	1.245	1.51	1.711	1.912	2.145	2.411	2.525
